For experiment [1], the target named is T1, Burkholderia xenovorans LB400 2-keto-3-deoxy-D-xylonate dehydratase (DR64_8450) (Paraburkholderia xenovorans, UniProt Q13FD1).
T1 construct: coupled with D-xylonate dehydratase and KGSADH
T1 sequence (Q13FD1 1-395): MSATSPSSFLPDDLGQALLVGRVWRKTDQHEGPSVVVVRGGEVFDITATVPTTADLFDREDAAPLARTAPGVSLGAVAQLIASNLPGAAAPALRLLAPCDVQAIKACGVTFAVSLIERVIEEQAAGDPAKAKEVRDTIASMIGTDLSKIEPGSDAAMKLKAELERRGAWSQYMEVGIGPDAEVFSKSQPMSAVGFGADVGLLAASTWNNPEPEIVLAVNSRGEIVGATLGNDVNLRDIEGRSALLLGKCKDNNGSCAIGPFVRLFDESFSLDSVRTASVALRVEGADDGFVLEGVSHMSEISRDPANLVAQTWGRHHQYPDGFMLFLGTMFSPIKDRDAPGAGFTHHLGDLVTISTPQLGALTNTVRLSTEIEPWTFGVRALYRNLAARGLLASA
Kind of experiment: B. xenovorans 2-keto-3-deoxy-D-xylonate dehydratase, coupled assay with KGSADH. The class given is biochemical. As to the method:
(§1) 2-Keto-3-deoxy-D-xylonate dehydratase (XylX/DR64-8450), 2-keto-3-deoxy-L-arabonate dehydratase (AraD) and 5-keto-4-deoxy-D-glucarate dehydratase (YcbC): Enzyme activities of XylX, DR64-8450, AraD and YcbC were assayed spectrophotometrically in a coupled assay with the corresponding previous dehydratase and 2-ketoglutaric semialdehyde dehydrogenase (KGSADH) as previously described (Watanabe et al., 2006. J Biol. Chem. 281:33521-33536). […] The reaction was initiated by adding an appropriate amount of 2-keto-3-deoxy-D-xylonate dehydratase (XylX/DR64-8450)/2-keto-3-deoxy-L-arabonate dehydratase (AraD)/5-keto-4-deoxy-D-glucarate dehydratase (YcbC), and the increasing absorbance at 340 nm caused by NADH produced in the reaction was monitored.

The target in experiment [2] is T2, Caulobacter crescentus 2-keto-3-deoxy-D-xylonate dehydratase (XylX) (Caulobacter vibrioides, UniProt A0A0H3C4T2).
T2 construct: coupled with XylD and KGSADH; BlpI site removed in gene
T2 sequence (A0A0H3C4T2 1-384): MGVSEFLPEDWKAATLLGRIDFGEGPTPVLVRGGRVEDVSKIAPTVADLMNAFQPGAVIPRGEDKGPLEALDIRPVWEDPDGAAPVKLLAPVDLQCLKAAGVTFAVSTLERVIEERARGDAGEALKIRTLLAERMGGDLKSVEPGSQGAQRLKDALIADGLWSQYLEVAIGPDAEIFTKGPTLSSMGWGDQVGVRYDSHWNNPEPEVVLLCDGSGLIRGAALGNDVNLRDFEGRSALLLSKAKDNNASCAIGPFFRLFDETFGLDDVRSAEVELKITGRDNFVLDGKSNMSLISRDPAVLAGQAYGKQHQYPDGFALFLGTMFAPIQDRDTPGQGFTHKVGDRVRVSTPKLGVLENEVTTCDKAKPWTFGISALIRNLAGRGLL
The experiment in a line: C. crescentus 2-keto-3-deoxy-D-xylonate dehydratase, coupled assay with KGSADH. The class given is biochemical. As to conditions: substrate from 0-20 mM D-xylonate, 1 mM NAD+, pH 7.5, 25° C. As for the experimental part:
as §1

Experiment [3] addresses T3, Bacillus subtilis 5-keto-4-deoxy-D-glucarate dehydratase (YcbC) (Bacillus subtilis, UniProt P42235).
T3 construct: His; made in house; host or cells: E. coli BL21
Kind of experiment: 5-keto-4-deoxy-D-glucarate dehydratase, coupled assay with KGSADH. In kind it is biochemical. The note with it: substrate from 0-20 mM D-galactarate, pH 7.5, 25° C. As for the experimental part:
as §1

Experiment [4] has as its target T4, Burkholderia xenovorans LB400 D-xylose dehydrogenase (DR64_8447) (Paraburkholderia xenovorans, UniProt Q13FC8).
T4 construct: gene from LB400 genomic DNA
T4 sequence (Q13FC8 1-268): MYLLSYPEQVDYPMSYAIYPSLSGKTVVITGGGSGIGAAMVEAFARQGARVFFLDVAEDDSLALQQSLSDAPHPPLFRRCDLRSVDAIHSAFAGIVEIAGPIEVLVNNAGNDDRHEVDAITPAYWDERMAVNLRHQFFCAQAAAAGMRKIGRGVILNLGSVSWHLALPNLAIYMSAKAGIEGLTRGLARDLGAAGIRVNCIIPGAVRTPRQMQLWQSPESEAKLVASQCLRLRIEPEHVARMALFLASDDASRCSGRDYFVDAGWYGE
The experiment in a line: B. xenovorans D-xylose dehydrogenase, NADH generation at 340 nm. The class given is biochemical. As to conditions: D-xylose 0 to 10 mM, 1 mM NAD+. As to the method: (§2) A series of enzymatic assays were conducted to estimate the initial activity as a function of starting substrate concentration. […] Kinetic constants (kcat/Km) for following enzymes were calculated with the same method.

The target of experiment [5] is T5, Caulobacter crescentus D-xylose dehydrogenase (XylB) (Caulobacter vibrioides, UniProt B8H1Z0).
T5 construct: His; made in house; host or cells: E. coli BL21
T5 sequence (B8H1Z0 1-248): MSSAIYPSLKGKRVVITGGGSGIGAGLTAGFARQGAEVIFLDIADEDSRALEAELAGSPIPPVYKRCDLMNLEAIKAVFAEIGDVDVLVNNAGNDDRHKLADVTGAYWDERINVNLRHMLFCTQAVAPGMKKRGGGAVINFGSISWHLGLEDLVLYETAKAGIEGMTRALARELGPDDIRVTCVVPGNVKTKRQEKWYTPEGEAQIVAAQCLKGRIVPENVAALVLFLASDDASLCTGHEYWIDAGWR
The experiment in a line: C. crescentus D-xylose dehydrogenase, NADH generation at 340 nm. The class given is biochemical. The note with it: D-xylose 0 to 10 mM, 1 mM NAD+. As for the experimental part:
as §2

Experiment [6] concerns the target T6, Lactococcus lactis 2-ketoacid decarboxylase Kivd, wild type (Lactococcus lactis, UniProt Q684J7).
T6 construct: also expressed from pBDO-5 in E. coli fermentation (A5)
T6 sequence (Q684J7 1-548): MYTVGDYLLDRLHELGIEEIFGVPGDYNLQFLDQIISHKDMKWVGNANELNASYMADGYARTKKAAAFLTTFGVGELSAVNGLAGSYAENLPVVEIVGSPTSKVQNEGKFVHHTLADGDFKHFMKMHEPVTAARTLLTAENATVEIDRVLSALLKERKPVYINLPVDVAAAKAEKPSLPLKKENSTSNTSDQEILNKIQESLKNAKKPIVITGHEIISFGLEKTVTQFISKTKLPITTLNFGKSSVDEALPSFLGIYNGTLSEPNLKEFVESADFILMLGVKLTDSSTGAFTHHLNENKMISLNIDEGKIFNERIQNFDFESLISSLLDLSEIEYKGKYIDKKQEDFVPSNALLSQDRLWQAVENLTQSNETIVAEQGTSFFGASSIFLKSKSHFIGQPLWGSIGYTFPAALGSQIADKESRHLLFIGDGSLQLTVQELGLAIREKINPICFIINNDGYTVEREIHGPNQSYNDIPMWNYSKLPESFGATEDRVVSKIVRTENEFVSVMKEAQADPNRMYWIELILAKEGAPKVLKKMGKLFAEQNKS
Kind of experiment: Kivd activity inferred from absence of BTO accumulation with L-arabinose as substrate. The class given is cell-based. The note with it: indicated by no accumulation of BTO using L-arabinose. As to the method: 125 ml conical flasks with 0.2 g CaCO3 were autoclaved and dried to perform all small-scale fermentations. […] 200 μl of overnight cultures incubated in 2×YT medium were transferred into the flasks and placed in a shaker at a speed of 250 rpm. After adding 0.1 mM isopropyl-β-D-thiogalactoside (IPTG), the flasks were sealed by parafilm and the fermentation was performed for 48 hours at 30° C. The fermentation products were measured by HPLC.

The mark [7] stands for this setting: 100 mM Tris-HCl, 5 mM MgCl2, pH 7.5, 30° C.

Where “and” joins values, the source holds several entries; their conditions need not be identical. Equal entries are not always repeated.

T3 sequence (P42235 whole entry): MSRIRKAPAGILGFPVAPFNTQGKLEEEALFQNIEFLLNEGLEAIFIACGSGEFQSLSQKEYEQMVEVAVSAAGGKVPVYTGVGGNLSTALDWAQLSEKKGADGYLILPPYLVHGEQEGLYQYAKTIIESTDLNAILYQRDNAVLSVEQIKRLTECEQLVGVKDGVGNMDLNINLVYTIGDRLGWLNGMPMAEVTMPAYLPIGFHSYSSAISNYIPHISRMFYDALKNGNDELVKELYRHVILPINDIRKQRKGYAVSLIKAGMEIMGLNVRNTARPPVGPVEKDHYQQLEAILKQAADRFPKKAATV

In the case of `O=C(O)C(=O)C[C@H](O)CO` [2-keto-3-deoxy-D-xylonate], in experiment [1] (coupled assay, substrate from 0-20 mM D-xylonate, 1 mM NAD+, pH 7.5, 25° C.), the kcat amounted to 4.7 s⁻¹. For the same molecule, the “kcat compared to XylX of C. crescentus” value in experiment [1] (higher kcat (4.7 s^−1) vs 0.53 s^−1) is recorded as 9 fold. Moreover, in experiment [2], the catalytic constant (kcat) was determined as 0.53 s⁻¹ and the kcat/Km is 260 M⁻¹ s⁻¹.

`O=C(O)C(=O)C[C@H](O)[C@@H](O)C(=O)O` [5-keto-4-deoxy-D-glucarate]: the “specific constant (kcat/Km), compared within D-galacturonate pathway” value in experiment [3] is “lowest specific constant”.

Regarding `OC1OC[C@@H](O)[C@H](O)[C@H]1O` (stereo partly drawn) [D-xylose], the Michaelis-Menten constant (Km) came to 1970 ± 120 µM in experiment [4] (setting [7]) and 850 ± 80 µM in experiment [5] (setting [7]). The kcat in experiment [4] (pH 7.5, 30° C.) is 49.9 ± 4.2 s⁻¹; in experiment [5] (pH 7.5, 30° C.) it was 12.1 s⁻¹ and 12.1 ± 2.2 s⁻¹.

`O=C(O)C(=O)C[C@@H](O)CO` [2-keto-3-deoxy-L-arabonate]: the “Kivd activity on 2-keto-3-deoxy-L-arabonate” value in experiment [6] is given as “not active”.

Values taken from patent US20170137855A1, “RECOMBINANT CELLS AND METHODS FOR NONPHOSPHORYLATIVE METABOLISM” (REGENTS OF THE UNIVERSITY OF MINNESOTA, priority 2015, published 2017).
